Measured values as given in US9587205B2, “Activation of peroxygen bleach” (Warwick International Group Limited, priority 2012, dated 2017).

Assay: Peracid (peracetic acid) release rate, iodometric titration
Assay type: physicochemical
Details: for Peracid Release (% th. max): time 5 mins, 20° C., 75 rpm, actual PAR/theoretical PAR
Description: The invention is illustrated by determining the rate of peracid release as a proportion of the maximum achievable based on acetyl groups available for reaction with perhydroxyl ion.
In this specification the method used to measure peracid generation is an iodometric titration carried out as follows: 25 g of a mixture of 85% by weight IEC A*base detergent, 10% sodium percarbonate and 5% activator, accurately weighed, is added to it deionised water at 20° C. in a beaker stirred by overhead stirrer at 75 rpm at t=0. After predetermined times from 2 mins, a 50 ml sample of the solution is added to a mixture of 15 ml glacial acetic acid and 5 ml of a 10% solution of potassium iodide at 0° C. and titrated against 0.05M sodium thiosulphate using a suitable indicator for iodine as quickly as possible. The theoretical amount of peracid released (PAR) is calculated as follows:
[formula] for TriAED the moles of peracid released is 1, for TAED it is 2.
The actual amount of peracid released (actual PAR) is calculated from the titre of thiosulphate and its molarity, based on the correlation of 2 moles thiosulphate to 1 mole of peracid. The results reported are of actual PAR/theoretical PAR for each time point.
Testing of peracetic acid release rate is carried out according to the standard test method described above.

Peracid Release (% th. max)	peracid release as a proportion of the maximum achievable (within two minutes of being added to water at 20° C.)	Structure (SMILES)
45	less than 70%	CC(=O)N(CCN(C(C)=O)C(C)=O)C(C)=O [TAED, Tetra-acetylethylene diamine]
92	–	CC(=O)NCCN(C(C)=O)C(C)=O [Tri AED, N,N,N′-triacetylethylene diamine]
